Reference: patent US8815529B2, “Sulfotransferase assay” (Research & Diagnostics Systems, Inc., priority 2011, dated 2014)

Tests used:
gPAPP [1] = target: T1, gPAPP (Mus musculus, UniProt Q80V26); experiment: Specificity of gPAPP on 3′-AMP, 5′-AMP, PAP and PAPS (phosphate release); type: biochemical; conditions: for activity of gPAPP alone on the nucleotide: 1 μg gPAPP; for activity of gPAPP alone on the nucleotide / phosphate released by gPAPP versus amount of gPAPP: 10 mM Mg2+; for phosphate released by gPAPP versus amount of gPAPP: 50 nmol PAP or PAPS, pH 7.5, 20 minutes
T1 construct: N-terminal His-tagged recombinant protein containing amino acids from E51 to K356; His tag (N); host or cells: CHO cells
T1 sequence (Q80V26 51-356): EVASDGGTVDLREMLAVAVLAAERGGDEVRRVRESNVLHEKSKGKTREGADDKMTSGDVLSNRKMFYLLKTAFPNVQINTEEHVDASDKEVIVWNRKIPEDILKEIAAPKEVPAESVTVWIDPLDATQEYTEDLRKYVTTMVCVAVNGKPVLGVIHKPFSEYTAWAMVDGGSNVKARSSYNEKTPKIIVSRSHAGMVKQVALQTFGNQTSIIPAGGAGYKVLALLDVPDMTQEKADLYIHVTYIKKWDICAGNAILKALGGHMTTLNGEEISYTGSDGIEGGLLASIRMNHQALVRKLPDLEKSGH
Protocol: (§1) In the following examples, the gPAPP used was recombinant mouse gPAPP expressed in CHO cells as an N-terminal His-tagged recombinant protein containing amino acids from E51 to K356, created by R & D Systems. The sequence was based on accession number NP 808398 from the National Center for Biotechnology Information. The chondroitin sulfate (CS) and p-nitrophenol (pNP) were obtained from Sigma Aldrich. The PAPS was prepared by R & D Systems using recombinant S. cerevisiae ATP sulurylase and P. chrysogenum APS kinase. The APS kinase was also prepared by R & D Systems. Recombinant human SULT1A1, CHST3, CD73, TNAP and Malachite Green Phosphate Detection Kit were from R & D Systems. Protein concentrations were quantified using the Bradford assay as described by Bradford, M. M., A rapid and sensitive method for the quantitation of microgram quantities of protein utilizing the principle of protein-dye binding. Anal Biochem. 1976. Vol 72, Page 248-254, the relevant portions of which are hereby incorporated by reference. Phosphate levels were determined using the Malachite Green Phosphate Detection Kit available from R & D Systems, according to the package instructions. All examples were performed in a buffer of 25 mM Tris at pH 7.5.
The specificity of gPAPP was first tested on 3′-AMP, 5′-AMP and PAP in the absence or presence of CD73 by combining 10 nmol of either 3′-AMP, 5′-AMP or PAP with 1 μg gPAPP and/or 0.1 μg CD73 in 50 μL assay buffer containing 10 mM Mg^2 at pH 7.5. In a parallel experiment, the same amount of nucleotide was combined with tissue-non-specific alkaline phosphatase (TNAP) at pH 9.0. The ratio between the phosphate released by gPAPP and/or CD73 (Pi) and the phosphate released by TNAP (PiTNAP) was plotted versus the nucleotide and phosphatases in FIG. 5. […] When gPAPP and CD73 were used together, they released twice as much phosphate from PAP than gPAPP alone.
The specificity of gPAPP was tested on PAP and PAPS. In this example, 50 nmol of either PAP or PAPS was treated with different amounts of gPAPP in 50 μL assay buffer containing 10 mM Mg^2 at pH 7.5 for 20 minutes. The released phosphate was plotted versus the amount of gPAPP.

gPAPP [2] = target: T1, gPAPP; experiment: Inhibition of gPAPP hydrolysis of PAP by PAPS; type: biochemical; conditions: 0.5 mM PAPS, amount of PAP greater than the coupling capacity
Protocol: as §1, with “Vol 72, Page 248-254, the relevant portions of which are hereby incorporated by reference.” left out, “All examples were performed in a buffer of 25 mM Tris at pH 7.5.” left out
In this example, the coupling capacity of gPAPP was determined. […] The coupling capacity of gPAPP was determined by combining 1 μg gPAPP with increasing amounts of PAP, in the presence or absence of 0.5 mM PAPS in 50 μL assay buffer containing 10 mM Mg^2+ at pH 7.5 for either 20 or 40 minutes. […]

CHST3 = target: T2, CHST3 (Homo sapiens, UniProt Q7LGC8); experiment: CHST3 substrate curves for CS and PAPS, gPAPP-coupled assay; type: biochemical
T2 construct: purchased R & D Systems
T2 sequence (Q7LGC8 1-479): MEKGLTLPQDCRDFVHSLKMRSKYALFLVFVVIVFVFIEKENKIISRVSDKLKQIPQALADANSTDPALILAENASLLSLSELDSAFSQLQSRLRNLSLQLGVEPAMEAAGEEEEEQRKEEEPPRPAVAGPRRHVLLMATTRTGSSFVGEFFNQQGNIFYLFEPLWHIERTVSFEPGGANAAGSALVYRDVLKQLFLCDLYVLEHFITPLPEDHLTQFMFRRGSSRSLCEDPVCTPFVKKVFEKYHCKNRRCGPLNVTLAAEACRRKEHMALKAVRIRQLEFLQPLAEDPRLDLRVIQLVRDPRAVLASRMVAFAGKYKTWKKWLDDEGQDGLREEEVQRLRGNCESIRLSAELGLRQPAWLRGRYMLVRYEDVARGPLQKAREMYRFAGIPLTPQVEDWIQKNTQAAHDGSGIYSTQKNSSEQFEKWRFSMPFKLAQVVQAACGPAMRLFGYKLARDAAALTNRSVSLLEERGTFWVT
Protocol: as §1
Carbohydrate sulfotransferase 3 (CHST3) is a sulfotransferase which is known to catalyze the sulfation of N-acetylgalactosamine at the 6-O position. In a first series of reactions, 1 μg CHST3 was combined with 1 μg gPAPP and increasing concentrations of CS in 50 μl assay buffer containing 0.8 mM PAPS, 10 mM MgCl2 at pH 7.5. In a second series of reactions, 0.4 μg CHST3 was combined with 1 μg gPAPP and increasing concentrations of PAPS in 50 μL assay buffer containing […], 10 mg/ml CS, 10 mM MgCl2 at pH 7.5.
An enzyme dose curve was then created for CHST3 at the optimal concentrations for both the donor and acceptor substrates in FIG. 11. To create the dose curve, 1 μg gPAPP was combined with increasing amounts of CHST3 in the presence of 10 mg/ml of CS and 0.5 mM of PAPS in 50 μl assay buffer containing 10 mM MgCl2 at pH 7.5.

sulfotransferases = conditions: reported; cited from earlier work
SULT1A1 [3] = target: T3, SULT1A1 (Homo sapiens, UniProt P50225); conditions: read-out: half maximal velocity (Km); reported; cited from earlier work
T3 sequence (P50225 whole entry): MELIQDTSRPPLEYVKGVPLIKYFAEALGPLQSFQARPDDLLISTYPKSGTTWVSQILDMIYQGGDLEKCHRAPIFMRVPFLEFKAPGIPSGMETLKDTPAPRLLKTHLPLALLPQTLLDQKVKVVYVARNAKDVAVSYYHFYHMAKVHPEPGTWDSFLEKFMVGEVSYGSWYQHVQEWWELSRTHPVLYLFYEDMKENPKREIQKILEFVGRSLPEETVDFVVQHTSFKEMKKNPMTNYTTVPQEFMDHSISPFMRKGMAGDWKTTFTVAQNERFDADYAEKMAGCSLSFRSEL

SULT1A1 [4] = target: T3, SULT1A1; experiment: SULT1A1 velocity versus pNP concentration, gPAPP/CD73-coupled assay; type: biochemical; design: purchased R & D Systems; conditions: 0.1 μg SULT1A1, 0.25 mM PAPS, gPAPP and CD73
Protocol: as §1, with “Anal Biochem. 1976. Vol 72, Page 248-254, the relevant portions of which are hereby incorporated by reference.” left out, “All examples were performed in a buffer of 25 mM Tris at pH 7.5.” left out
A series of reactions were performed by combining increasing concentrations of pNP with 0.1 μg SULT1A1, 2 μg PAPP and 0.1 μg CD73 in 200 μL of an assay buffer containing 0.25 mM PAPS, 10 mM MgCl2 at pH 7.5. […] These values are consistent with reported values for SULT1A1 determined using radioisotope assays in the literature.

Nc1ncnc2c1ncn2[C@@H]1O[C@H](CO)[C@@H](OP(=O)(O)O)[C@H]1O [3′-AMP]
activity of gPAPP alone on the nucleotide (gPAPP [1]; 10 nmol nucleotide, pH 7.5): not

Nc1ncnc2c1ncn2[C@@H]1O[C@H](COP(=O)(O)O)[C@@H](O)[C@H]1O [5′-AMP, 5-adenosine monophosphate]
activity of gPAPP alone on the nucleotide (gPAPP [1]; 10 nmol nucleotide, pH 7.5): not

Nc1ncnc2c1ncn2[C@@H]1O[C@H](COP(=O)(O)OS(=O)(=O)O)[C@@H](OP(=O)(O)O)[C@H]1O [PAPS, 3′-phosphoadenosine-5′-phosphosulfate]
phosphate released by gPAPP versus amount of gPAPP (gPAPP [1]): showed no change
inhibition of the hydrolysis of PAP (gPAPP [2]): ~20%
level above which substrate inhibition occurred (CHST3; 0.4 μg CHST3, 10 mg/ml CS): above 0.5 mM
Km (CHST3; 0.4 μg CHST3, 10 mg/ml CS, read-out: concentration for half-maximal velocity (Km for PAPS)): < 100 µM
optimal concentration (visually determined) (CHST3; highest point of the curve of FIG. 10B): about 0.5 mM

Nc1ncnc2c1ncn2[C@@H]1O[C@H](COP(=O)(O)O)[C@@H](OP(=O)(O)O)[C@H]1O [PAP, 3′-phosphoadenosine-5′-phosphate]
phosphate released by gPAPP and CD73 together compared with gPAPP alone (gPAPP [1]; 10 nmol nucleotide, 1 μg gPAPP and 0.1 μg CD73, 10 mM Mg2+, pH 7.5): twice as much
activity of gPAPP alone on the nucleotide (gPAPP [1]; 10 nmol nucleotide, pH 7.5): showed activity
phosphate released by gPAPP versus amount of gPAPP (gPAPP [1]): increased with the amount of the enzyme
inhibition of sulfotransferases (sulfotransferases): potent inhibitor

chondroitin sulfate [CS]
concentration for half-maximal velocity (Km for CS) (CHST3; 1 μg CHST3, 0.8 mM PAPS): about 2 mg/ml
substrate inhibition (CHST3; 1 μg CHST3, 0.8 mM PAPS): no substrate inhibition
optimal concentration (visually determined) (CHST3; highest point of the curve of FIG. 10A): > 5 mg/mL

O=[N+]([O-])c1ccc(O)cc1 [pNP, p-nitrophenol]
Km (SULT1A1 [3]): < 1 µM
concentration above which substrate inhibition was present (SULT1A1 [4]): above 4 mM
concentration for half maximum velocity (SULT1A1 [4]; projected): < 1.0 µM
